# Results: ChEMBL document CHEMBL5303304, “EUbOPEN Chemogenomics Library - IncuCyte” (2023)
# Key:
# Assay type in all cases: toxicity, cell-based
# HEK-293T = experiment: Incucyte cell viability with HEK293T; conditions: human, 10 µM, compound concentration 10 uM
# Fibroblast = experiment: Incucyte cell viability with human fibroblast; conditions: 10 µM, compound concentration 10 uM
# U2OS = experiment: Incucyte cell viability with U2OS; conditions: human, 10 µM, compound concentration 10 uM
# Note: unitless GR value; below 1 slowed growth and below 0 cell loss.
SMILES,"Growth Rate (HEK-293T; 0 h, replicate number 2)","Growth Rate (HEK-293T; 6 h, replicate number 1)","Growth Rate (HEK-293T; 6 h, replicate number 2)","Growth Rate (HEK-293T; 12 h, replicate number 1)","Growth Rate (HEK-293T; 12 h, replicate number 2)","Growth Rate (HEK-293T; 18 h, replicate number 1)","Growth Rate (HEK-293T; 18 h, replicate number 2)","Growth Rate (HEK-293T; 24 h, replicate number 1)","Growth Rate (HEK-293T; 24 h, replicate number 2)","Growth Rate (Fibroblast; 12 h, replicate number 2)","Growth Rate (Fibroblast; 18 h, replicate number 2)","Growth Rate (Fibroblast; 24 h, replicate number 1)","Growth Rate (Fibroblast; 24 h, replicate number 2)","Growth Rate (U2OS; 12 h, replicate number 1)","Growth Rate (U2OS; 12 h, replicate number 2)","Growth Rate (U2OS; 18 h, replicate number 1)","Growth Rate (U2OS; 24 h, replicate number 1)","Growth Rate (Fibroblast; 6 h, replicate number 2)","Growth Rate (Fibroblast; 12 h, replicate number 1)","Growth Rate (Fibroblast; 6 h, replicate number 1)",also measured
O=C1Nc2ccc(C(=O)c3ccco3)cc2C1=Cc1cc(Cl)c(O)c(Cl)c1 [GW406108X],0.57,0.79,0.56,0.25,0.31,0.41,0.17,0.24,0.11,1,0.83,0.7,0.64,0.5,0.24,0.4,0.56,–,–,–,"Growth Rate (HEK-293T; 0 h, replicate number 1): -1; Growth Rate (Fibroblast; 0 h, replicate number 1): -1; Growth Rate (Fibroblast; 18 h, replicate number 1): 1; Growth Rate (U2OS; 6 h, replicate number 2): -0.19; Growth Rate (U2OS; 18 h, replicate number 2): 0.33; Growth Rate (U2OS; 24 h, replicate number 2): 0.38"
CN(C(=O)CCOCCOCCOCCOCCNc1cccc2c1C(=O)N(C1CCC(=O)NC1=O)C2=O)[C@H]1CC[C@@]2(C)[C@@H](CC[C@@H]3[C@@H]2CC[C@]2(C)[C@@H](c4ccc5ccncc5c4)CC[C@@H]32)C1 (stereo partly drawn),-0.85,0.57,1,0.77,0.73,0.76,0.79,0.88,0.76,–,0.88,–,0.91,0.79,-0.46,0.82,0.92,–,–,–,"Growth Rate (HEK-293T; 0 h, replicate number 1): 0.06; Growth Rate (Fibroblast; 0 h, replicate number 1): -1; Growth Rate (U2OS; 6 h, replicate number 1): 0.52"
Cc1cc(CN(CC(=O)Nc2ccc(Cl)cc2Cl)C2CCCCC2)ccc1OCC(=O)O,0.19,–,–,–,–,–,–,–,–,0.9,0.88,–,0.87,–,0.97,–,–,0.35,–,–,"Growth Rate (HEK-293T; 0 h, replicate number 1): 0.78; Growth Rate (Fibroblast; 0 h, replicate number 2): -0.93; Growth Rate (U2OS; 6 h, replicate number 1): 0.64"
CC(C)(O)c1ccc2c(c1)ncn2-c1cccc(-c2ccccc2C#N)c1,–,0.78,-0.24,0.77,0.2,0.65,0.48,0.73,0.54,0.33,0.52,0.28,–,–,–,–,–,-0.67,0.43,–,"Growth Rate (Fibroblast; 0 h, replicate number 1): 0.6; Growth Rate (Fibroblast; 0 h, replicate number 2): -0.48; Growth Rate (Fibroblast; 18 h, replicate number 1): 0.64; Growth Rate (U2OS; 0 h, replicate number 1): 0.93; Growth Rate (U2OS; 0 h, replicate number 2): 0.83"
COc1cc(C)c(S(=O)(=O)N(C)CCOCC(=O)N(C)[C@H]2CCC[C@@H](N3CCN(C)CC3)C2)c(C)c1.O=C(O)C(O)C(O)C(=O)O,0.26,–,–,–,–,–,–,–,–,0.57,0.67,–,0.92,–,0.86,–,–,-0.57,–,0.87,"Growth Rate (Fibroblast; 0 h, replicate number 1): -1; Growth Rate (Fibroblast; 18 h, replicate number 1): 0.93"
Cc1sc(C(=O)c2cncnc2N[C@@H]2C[C@H](COS(N)(=O)=O)[C@@H](O)C2)cc1[C@@H]1NCCc2ccc(Cl)cc21,-0.97,–,–,–,–,0.9,–,0.74,0.88,0.8,–,0.47,–,1,-0.03,0.96,0.66,–,0.55,0.42,"Growth Rate (HEK-293T; 0 h, replicate number 1): -0.45; Growth Rate (Fibroblast; 0 h, replicate number 2): -0.16; Growth Rate (Fibroblast; 18 h, replicate number 1): 0.44; Growth Rate (U2OS; 0 h, replicate number 2): 0.29; Growth Rate (U2OS; 6 h, replicate number 1): 0.59; Growth Rate (U2OS; 6 h, replicate number 2): -0.29; Growth Rate (U2OS; 18 h, replicate number 2): 0.17; Growth Rate (U2OS; 24 h, replicate number 2): 0.3"
Cc1ccc2c(N)c(C(=O)NC3CCc4cc(N5CC6CCC(C5)N6)ccc4C3)sc2n1.O=CO (stereo not drawn),–,-0.55,-0.64,-0.47,-0.55,-0.39,-0.46,-0.32,-0.37,-0.17,-0.26,0.01,-0.21,0.47,0.12,0.35,0.24,-0.1,0.09,0.09,"Growth Rate (Fibroblast; 18 h, replicate number 1): 0.05; Growth Rate (U2OS; 0 h, replicate number 2): 0.59; Growth Rate (U2OS; 6 h, replicate number 2): 0.37; Growth Rate (U2OS; 18 h, replicate number 2): 0.15; Growth Rate (U2OS; 24 h, replicate number 2): 0.08"
Cc1cc(O)c(-c2ccc([C@@H](C)CN(C)C)cc2)c2c1[nH]c(=O)c1sccc12,–,-0.94,-0.93,-0.89,-0.74,-0.72,-0.54,-0.64,-0.41,-0.46,-0.35,0.28,-0.3,0.42,0.43,0.16,-0.11,-0.58,–,-1,"Growth Rate (Fibroblast; 0 h, replicate number 1): 0.34; Growth Rate (Fibroblast; 0 h, replicate number 2): 0.6; Growth Rate (U2OS; 0 h, replicate number 1): -0.87; Growth Rate (U2OS; 0 h, replicate number 2): -0.95; Growth Rate (U2OS; 18 h, replicate number 2): 0.08; Growth Rate (U2OS; 24 h, replicate number 2): -0.1"
CCN(CC)CCO[C@H]1CC[C@@]2(C)C(=CC[C@@H]3[C@@H]2CC[C@]2(C)C(=O)CC[C@@H]32)C1.Cl,–,0.35,0.24,0.32,0.31,0.45,0.42,0.53,0.52,-0.05,-0.06,-0.25,-0.11,–,–,–,0.91,–,-0.34,0.34,"Growth Rate (Fibroblast; 18 h, replicate number 1): -0.18; Growth Rate (U2OS; 0 h, replicate number 1): 0.56; Growth Rate (U2OS; 6 h, replicate number 1): 0.77"
COc1ccc(C(F)(F)F)cc1NC(=O)Nc1ccc(Oc2cc(C)nc(N)n2)c2ccccc12,-0.09,0.58,–,0.67,0.92,0.55,0.87,0.6,0.81,0.87,0.85,–,0.89,–,–,–,–,0.32,–,–,"Growth Rate (Fibroblast; 0 h, replicate number 1): -1; Growth Rate (Fibroblast; 0 h, replicate number 2): -0.09; Growth Rate (U2OS; 0 h, replicate number 1): -1"
COc1cc(OC)c(NC(=O)Nc2cc(C)on2)cc1Cl,0.7,–,–,–,–,–,–,–,–,–,–,–,–,–,–,0.96,–,–,-1,0.03,"Growth Rate (HEK-293T; 0 h, replicate number 1): 0.72; Growth Rate (Fibroblast; 0 h, replicate number 2): -0.96; Growth Rate (U2OS; 6 h, replicate number 2): 0.98; Growth Rate (U2OS; 18 h, replicate number 2): 0.82"
CCN1CCN(Cc2ccc(NC(=O)c3ccc(C)c(Oc4ccnc5[nH]ccc45)c3)cc2C(F)(F)F)CC1.Cl.Cl.Cl.O,–,-0.97,-0.99,-0.89,-0.8,-0.7,-0.55,-0.63,-0.43,0.02,-0.03,–,-0.05,0.84,0.38,0.36,0.17,–,-1,-0.67,"Growth Rate (U2OS; 0 h, replicate number 1): -0.12; Growth Rate (U2OS; 0 h, replicate number 2): -0.97; Growth Rate (U2OS; 6 h, replicate number 2): 0.57; Growth Rate (U2OS; 18 h, replicate number 2): 0.15; Growth Rate (U2OS; 24 h, replicate number 2): 0.04"
CC/C(=C(\c1ccccc1)c1ccc(OCCN(C)C)cc1)c1ccccc1.O=C(O)CC(O)(CC(=O)O)C(=O)O [TAMOXIFEN CITRATE],-0.98,0.14,0.13,0.4,0.48,0.48,0.45,0.56,0.52,-0.01,-0.19,-0.08,-0.21,0.8,0.93,0.84,0.91,0.32,-0.13,0.1,"Growth Rate (Fibroblast; 18 h, replicate number 1): -0.15; Growth Rate (U2OS; 0 h, replicate number 1): -0.22; Growth Rate (U2OS; 0 h, replicate number 2): 0.89; Growth Rate (U2OS; 6 h, replicate number 1): 0.66; Growth Rate (U2OS; 6 h, replicate number 2): 1; Growth Rate (U2OS; 18 h, replicate number 2): 0.88; Growth Rate (U2OS; 24 h, replicate number 2): 0.95"
N#CN1CC[C@@H](C(=O)Nc2nc3c(s2)CN(C(=O)CN=[N+]=[N-])CC3)C1 [JYQ88],–,0.69,0.71,0.77,0.7,1,0.77,0.96,0.85,0.49,0.75,1,0.77,0.95,–,–,–,0.78,0.78,–,"Growth Rate (HEK-293T; 0 h, replicate number 1): 0.97; Growth Rate (Fibroblast; 0 h, replicate number 1): -1; Growth Rate (U2OS; 0 h, replicate number 1): -1"
